Reference: article PMC11087268, “A folate inhibitor exploits metabolic differences in Pseudomonas aeruginosa for narrow-spectrum targeting” (Nature Microbiology, 2024)
≈ marks a conversion by molar mass, not a printed value.

Tests used:
[1] = system: Acinetobacter baumannii BAA-125; assay: MIC against A. baumannii BAA-125 in LB broth; format: cell-based; conditions: BAA125, 16 h, 37 °C, OD600
Method: (§1) Overnight cultures were diluted 1:150 in LB broth and added to a 96-well plate. Antibiotics were serially diluted 1:2 and added to columns of the 96-well plate and grown at 37 °C with continuous shaking. Cell growth was measured using optical density at 600 nm (OD600). MIC assays were performed in either BioTek Synergy HT or Tecan InfiniteM200 Pro microplate readers.

[2] = system: Staphylococcus aureus NRS384; assay: MIC (WuXi, Mueller–Hinton broth) against S. aureus NRS384; format: cell-based
Method: Bacterial colonies (4–8) of strains of interest were vortexed in saline and adjusted to an OD600 of 0.2. Strains were diluted 1:200 into CAMHB media in 96-well plates. Antibiotics were serially diluted 1:3 in DMSO, and 1 μl of each dilution was added to bacteria. The plates were incubated for 18–20 h at 37 °C before observation.

[3] = system: E. coli MG1655; assay: Growth of E. coli MG1655 in TMI-supplemented media with fluorofolin; format: cell-based, Escherichia coli
[4] = system: Pseudomonas aeruginosa PA01; assay: MIC against P. aeruginosa PA01 in LB broth; format: cell-based; conditions: 16 h, 37 °C, OD600
Method: as §1

Nc1nc(N)c2c(ccc3c2ccn3Cc2ccnc(F)c2)n1 [fluorofolin]
MIC [1]: 31.2 µg/mL | MIC [2]: 0.03 µg/mL (≈ 0.0973 µM) | rescue of growth inhibition by TMI supplementation ([3]; E. coli MG1655, 0.3 mM TMI, fluorofolin 2× MIC): could also be rescued with TMI supplementation | OD600 of E. coli MG1655 ([3]; Fluorofolin + TMI, Time 10 min): 0.007 | OD600 of E. coli MG1655 ([3]; Fluorofolin + TMI, Time 70 min): 0.0105 | OD600 of E. coli MG1655 ([3]; Fluorofolin + TMI, Time 80 min): 0.012 | OD600 of E. coli MG1655 ([3]; Fluorofolin + TMI, Time 90 min): 0.0135 | OD600 of E. coli MG1655 ([3]; Fluorofolin + TMI, Time 100 min): 0.015 | OD600 of E. coli MG1655 ([3]; Fluorofolin + TMI, Time 110 min): 0.0175 | OD600 of E. coli MG1655 ([3]; Fluorofolin + TMI, Time 120 min): 0.0195 | OD600 of E. coli MG1655 ([3]; Fluorofolin + TMI, Time 130 min): 0.0225 | OD600 of E. coli MG1655 ([3]; Fluorofolin + TMI, Time 140 min): 0.025 | OD600 of E. coli MG1655 ([3]; Fluorofolin + TMI, Time 150 min): 0.028 | OD600 of E. coli MG1655 ([3]; Fluorofolin + TMI, Time 160 min): 0.0305 | OD600 of E. coli MG1655 ([3]; Fluorofolin + TMI, Time 170 min): 0.0345 | OD600 of E. coli MG1655 ([3]; Fluorofolin + TMI, Time 180 min): 0.038 | OD600 of E. coli MG1655 ([3]; Fluorofolin + TMI, Time 190 min): 0.042 | OD600 of E. coli MG1655 ([3]; Fluorofolin + TMI, Time 200 min): 0.0465 | OD600 of E. coli MG1655 ([3]; Fluorofolin + TMI, Time 210 min): 0.052 | OD600 of E. coli MG1655 ([3]; Fluorofolin + TMI, Time 220 min): 0.0575 | OD600 of E. coli MG1655 ([3]; Fluorofolin + TMI, Time 230 min): 0.0625 | OD600 of E. coli MG1655 ([3]; Fluorofolin + TMI, Time 240 min): 0.068 | OD600 of E. coli MG1655 ([3]; Fluorofolin + TMI, Time 250 min): 0.0745 | OD600 of E. coli MG1655 ([3]; Fluorofolin + TMI, Time 260 min): 0.0815 | OD600 of E. coli MG1655 ([3]; Fluorofolin + TMI, Time 270 min): 0.0875 | OD600 of E. coli MG1655 ([3]; Fluorofolin + TMI, Time 280 min): 0.094 | OD600 of E. coli MG1655 ([3]; Fluorofolin + TMI, Time 290 min): 0.1 | OD600 of E. coli MG1655 ([3]; Fluorofolin + TMI, Time 300 min): 0.105 | OD600 of E. coli MG1655 ([3]; Fluorofolin + TMI, Time 310 min): 0.1105 | OD600 of E. coli MG1655 ([3]; Fluorofolin + TMI, Time 320 min): 0.1155 | OD600 of E. coli MG1655 ([3]; Fluorofolin + TMI, Time 330 min): 0.1215 | OD600 of E. coli MG1655 ([3]; Fluorofolin + TMI, Time 340 min): 0.1265 | OD600 of E. coli MG1655 ([3]; Fluorofolin + TMI, Time 350 min): 0.132 | OD600 of E. coli MG1655 ([3]; Fluorofolin + TMI, Time 360 min): 0.136 | OD600 of E. coli MG1655 ([3]; Fluorofolin + TMI, Time 370 min): 0.14 | OD600 of E. coli MG1655 ([3]; Fluorofolin + TMI, Time 380 min): 0.1435 | OD600 of E. coli MG1655 ([3]; Fluorofolin + TMI, Time 390 min): 0.147 | OD600 of E. coli MG1655 ([3]; Fluorofolin + TMI, Time 400 min): 0.151 | OD600 of E. coli MG1655 ([3]; Fluorofolin + TMI, Time 410 min): 0.155 | OD600 of E. coli MG1655 ([3]; Fluorofolin + TMI, Time 420 min): 0.1585 | OD600 of E. coli MG1655 ([3]; Fluorofolin + TMI, Time 430 min): 0.163 | OD600 of E. coli MG1655 ([3]; Fluorofolin + TMI, Time 440 min): 0.167 | OD600 of E. coli MG1655 ([3]; Fluorofolin + TMI, Time 450 min): 0.1715 | OD600 of E. coli MG1655 ([3]; Fluorofolin + TMI, Time 460 min): 0.176 | OD600 of E. coli MG1655 ([3]; Fluorofolin + TMI, Time 470 min): 0.181 | OD600 of E. coli MG1655 ([3]; Fluorofolin + TMI, Time 480 min): 0.1855 | OD600 of E. coli MG1655 ([3]; Fluorofolin + TMI, Time 490 min): 0.19 | OD600 of E. coli MG1655 ([3]; Fluorofolin + TMI, Time 500 min): 0.1955 | OD600 of E. coli MG1655 ([3]; Fluorofolin + TMI, Time 510 min): 0.2005 | OD600 of E. coli MG1655 ([3]; Fluorofolin + TMI, Time 520 min): 0.2055 | OD600 of E. coli MG1655 ([3]; Fluorofolin + TMI, Time 530 min): 0.21 | OD600 of E. coli MG1655 ([3]; Fluorofolin + TMI, Time 540 min): 0.2145 | OD600 of E. coli MG1655 ([3]; Fluorofolin + TMI, Time 970 min): 0.33 | OD600 of E. coli MG1655 ([3]; Fluorofolin, Time 10 min): -0.0085 | OD600 of E. coli MG1655 ([3]; Fluorofolin, Time 70 min): -0.005 | OD600 of E. coli MG1655 ([3]; Fluorofolin, Time 80 min): -0.003 | OD600 of E. coli MG1655 ([3]; Fluorofolin, Time 90 min): -0.0015 | OD600 of E. coli MG1655 ([3]; Fluorofolin, Time 100 min): 0.001 | OD600 of E. coli MG1655 ([3]; Fluorofolin, Time 110 min): 0.0035 | OD600 of E. coli MG1655 ([3]; Fluorofolin, Time 120 min): 0.006 | OD600 of E. coli MG1655 ([3]; Fluorofolin, Time 130 min): 0.009 | OD600 of E. coli MG1655 ([3]; Fluorofolin, Time 140 min): 0.0125 | OD600 of E. coli MG1655 ([3]; Fluorofolin, Time 150 min): 0.0155 | OD600 of E. coli MG1655 ([3]; Fluorofolin, Time 160 min): 0.018 | OD600 of E. coli MG1655 ([3]; Fluorofolin, Time 170 min): 0.02 | OD600 of E. coli MG1655 ([3]; Fluorofolin, Time 180 min): 0.023 | OD600 of E. coli MG1655 ([3]; Fluorofolin, Time 190 min): 0.0255 | OD600 of E. coli MG1655 ([3]; Fluorofolin, Time 200 min): 0.028 | OD600 of E. coli MG1655 ([3]; Fluorofolin, Time 210 min): 0.0305 | OD600 of E. coli MG1655 ([3]; Fluorofolin, Time 220 min): 0.033 | OD600 of E. coli MG1655 ([3]; Fluorofolin, Time 230 min): 0.035 | OD600 of E. coli MG1655 ([3]; Fluorofolin, Time 240 min): 0.0365 | OD600 of E. coli MG1655 ([3]; Fluorofolin, Time 250 min): 0.0395 | OD600 of E. coli MG1655 ([3]; Fluorofolin, Time 260 min): 0.0405 | OD600 of E. coli MG1655 ([3]; Fluorofolin, Time 270 min): 0.042 | OD600 of E. coli MG1655 ([3]; Fluorofolin, Time 280 min): 0.044 | OD600 of E. coli MG1655 ([3]; Fluorofolin, Time 290 min): 0.0455 | OD600 of E. coli MG1655 ([3]; Fluorofolin, Time 300 min): 0.0475 | OD600 of E. coli MG1655 ([3]; Fluorofolin, Time 310 min): 0.0485 | OD600 of E. coli MG1655 ([3]; Fluorofolin, Time 320 min): 0.0505 | OD600 of E. coli MG1655 ([3]; Fluorofolin, Time 330 min): 0.0515 | OD600 of E. coli MG1655 ([3]; Fluorofolin, Time 340 min): 0.053 | OD600 of E. coli MG1655 ([3]; Fluorofolin, Time 350 min): 0.0545 | OD600 of E. coli MG1655 ([3]; Fluorofolin, Time 360 min): 0.0555 | OD600 of E. coli MG1655 ([3]; Fluorofolin, Time 370 min): 0.0565 | OD600 of E. coli MG1655 ([3]; Fluorofolin, Time 380 min): 0.0575 | OD600 of E. coli MG1655 ([3]; Fluorofolin, Time 390 min): 0.058 | OD600 of E. coli MG1655 ([3]; Fluorofolin, Time 400 min): 0.059 | OD600 of E. coli MG1655 ([3]; Fluorofolin, Time 410 min): 0.0595 | OD600 of E. coli MG1655 ([3]; Fluorofolin, Time 420 min): 0.0605 | OD600 of E. coli MG1655 ([3]; Fluorofolin, Time 430 min): 0.061 | OD600 of E. coli MG1655 ([3]; Fluorofolin, Time 440 min): 0.0615 | OD600 of E. coli MG1655 ([3]; Fluorofolin, Time 450 min): 0.062 | OD600 of E. coli MG1655 ([3]; Fluorofolin, Time 460 min): 0.062 | OD600 of E. coli MG1655 ([3]; Fluorofolin, Time 470 min): 0.063 | OD600 of E. coli MG1655 ([3]; Fluorofolin, Time 480 min): 0.0635 | OD600 of E. coli MG1655 ([3]; Fluorofolin, Time 490 min): 0.0635 | OD600 of E. coli MG1655 ([3]; Fluorofolin, Time 500 min): 0.064 | OD600 of E. coli MG1655 ([3]; Fluorofolin, Time 510 min): 0.064 | OD600 of E. coli MG1655 ([3]; Fluorofolin, Time 520 min): 0.064 | OD600 of E. coli MG1655 ([3]; Fluorofolin, Time 530 min): 0.064 | OD600 of E. coli MG1655 ([3]; Fluorofolin, Time 540 min): 0.064 | OD600 of E. coli MG1655 ([3]; Fluorofolin, Time 970 min): 0.053 | MIC [4]: 6.25 µg/mL
